Reference: patent US7160545B2, “HLA-A24 binding peptides of enhancer of zeste homolog 2” (Green Peptide Co., Ltd., priority 2005, dated 2007)
Where two headings read alike, the source gives them in different places. No end group written: not given here.

Assays:
[1] = system: IgG in the plasma of prostate cancer patients; test: ELISA for peptide-specific IgG in plasma of prostate cancer patients; assay type: binding, human; settings: for Humoral response, Total (IgG-positive patients/patients tested): positive when OD more than 0.04; for IgG reactive to peptide, OD: 1:100-diluted plasma, cut-off OD 0.04, — = not positive
Description: Peptide-specific IgG levels in the plasma were measured by ELISA using a previously reported method (20). In brief, peptide (20 μg/well)-immobilized plates were blocked with Block Ace (Yukijirushi, Tokyo, Japan) and washed with 0.05% Tween20-PBS, after which 100 μl/well of plasma sample diluted with 0.05% Tween20-Block Ace was added to the plates. After a 2-hr incubation at 37° C., the plates were washed and further incubated for 2 hr with a 1:1000-diluted rabbit anti-human IgG (γ-chain-specific) (DAKO, Glostrup, Denmark). The plates were washed, and then 100 μl of 1:100-diluted goat anti-rabbit IgG-conjugated horseradish peroxidase (EnVision; DAKO) was added to each well, and the plates were incubated at room temperature for 40 min. After the plates were washed once, 100 μl/well of tetramethyl benzidine substrate solution (KPL, Guildford, UK) was added, and the reaction was stopped by the addition of 1 M phosphoric acid. The values are shown as optical density (OD) units/ml. To confirm the specificity of IgG to the indicated EZH2 peptide, sample plasma was cultured with plates coated with either the corresponding EZH2 peptide or an irrelevant EZH2 peptide. Thereafter, the levels of EZH2 peptide-specific IgG in the resulting supernatant were determined by ELISA.
As shown above, we investigated whether IgG reactive to each of the 11 EZH2-derived peptides could be detected in the plasma of 10 prostate cancer patients. These patients were not limited to the HLA-A24^+ subjects, because peptide-specific IgG was not restricted to MHC class I molecules, as reported previously (22). The mean+2 SD value (OD: 0.04), which was determined as the level of IgG reactive to the HIV peptide in plasma from HIV-negative healthy donors, was used as a cut-off value at a 1:100 diluted plasma in the ELISA.

[2] = system: PBMCs of HLA-A24^+ prostate cancer patients; test: IFN-γ production of peptide-stimulated PBMCs against peptide-pulsed C1R-A24 cells (peptide-specific CTL assay); assay type: cell-based, human; settings: for Cancer patients in whom the peptide induced peptide-specific CTLs: HLA-A24^+ prostate cancer patients; for IFN-γ production: day 15, C1R-A24 cells pulsed with corresponding peptide, HIV peptide background subtracted, mean of 2 wells
Description: The assay for the detection of peptide-specific CTLs in PBMCs was performed according to a previously reported method (21). In brief, PBMCs (1×10^5 cells/well) were incubated with 10 μg/ml of each peptide in a U-bottom-type 96-well microculture plate (Nunc, Roskilde, Denmark) at a volume of 200 μl of culture medium. The culture medium consisted of 45% RPMI-1640, 45% AIM-V medium (Gibco BRL, Grand Island, N.Y.), 10% FCS, 100 U/ml of interleukin (IL)-2, and 0.1 mM MEM nonessential amino acid solution (Gibco BRL, Grand Island, N.Y.). Half of the culture medium was removed and replaced with new medium containing a corresponding peptide (20 μg/ml) every 3 days. On the 15th day of culture, the cultured cells were separated into 4 wells, and two of which were used for EZH2 peptide-pulsed C1R-A24 cells, and the other two of which were used for the HIV peptide-pulsed C1R-A24 cells. C1R-A24 is an HLA-A*2402-expressing subline of C1R lymphoma (Oiso M, Eura M, Katsura F, Takiguchi M, Sobao Y, Masuyama K, Nakashima M, Itoh K, Ishikawa T. A newly identified MAGE-3-derived epitope recognized by HLA-A24-restricted cytotoxic T lymphocytes. Int. J. Cancer 81: 387–394, 1999, this reference is incorporated herein by reference). After an 18-hr incubation period, the supernatants were collected and the level of IFN-γ was determined by ELISA. The EZH2-170 peptide was included in this experiment as an EZH2 peptide that was less frequently recognized by the humoral immune system.

LNCaP-A24 cells [3] = test: 6-hr 51Cr-release cytotoxicity of EZH2 peptide-stimulated PBMCs; assay type: cell-based, human; settings: LNCaP-A24 (HLA-A24^+) versus LNCaP (HLA-A24^−) and PHA-stimulated T cell blasts, PBMCs from 3 HLA-A24^+ patients
Text: To investigate HLA-A24-restricted cytotoxicity, the level of cytotoxicity against the LNCaP was compared with the level of cytotoxicity against its transfectant, LNCaP-A24, which is a subline that transfected with the HLA-A*2402 gene and express the gene stably (Yao A, Harada M, Matsueda S, Ishihara Y, Shomura H, Noguchi M, Matsuoka K, Hara I, Kamidono S, Itoh K, Identification of parathyroid hormone-related protein-derived peptides immunogenic in human histocompatibility leukocyte antigen-A24^+ prostate cancer patients, British Journal of Cancer, 91:287–296, 2004, this reference is incorporated herein by reference). All cell lines were maintained in RPMI-1640 medium (Gibco BRL, Grand Island, N.Y.) supplemented with 10% FCS.
The PBMCs from 3 HLA-A24^+ prostate cancer patients were then stimulated in vitro with the indicated EZH2 peptide, and examined for their cytotoxicity against HLA-A24^− LNCaP cells, HLA-A24^+ LNCaP-A24, and HLA-A24^+ PHA-stimulated T cell blasts. Specifically, after in vitro stimulation with the EZH2 peptides, the peptide-stimulated PBMCs were additionally cultured with 100 U/ml IL-2 for approximately 10 days in 96 round-well plates in order to obtain a sufficient number of cells to carry out a cytotoxicity assay. Then, these cells were tested for cytotoxicity against LNCaP, LNCaP-A24, and PHA-stimulated T cell blasts by a 6-hr ^51Cr-release assay. Two thousand ^51Cr-labeled cells per well were cultured with effector cells in 96 round-well plates at the indicated effector/target ratios.

LNCaP-A24 cells [4] = test: Inhibition of the cytotoxicity of EZH2 peptide-stimulated PBMCs by antibodies; assay type: cell-based, human; settings: mAb 20 μg/ml; effector/target ratio 10/1; patients 17, 18, 21
Description: We further tried to confirm which effector cells were responsible for the cytotoxicity. EZH2 peptide-stimulated PBMCs from patients 17, 18, and 21 were tested for their cytotoxicity against the LNCaP-A24 cells. The 6-hr cytotoxicity assay was performed in the presence of the indicated monoclonal antibody (mAb). The assay was done at an effector/target ratio of 10/1. Either anti-HLA class I (W6/32: mouse IgG2a), anti-HLA-DR (L243: mouse IgG2a), anti-CD4 (Nu-Th/i: mouse IgG1), anti-CD8 (Nu-Ts/c: mouse IgG2a), or anti-CD14 (H14: mouse IgG2a) mAb was added to the wells at a dose of 20 μg/ml at the start of the assay.

[5] = significant: p < 0.05 and >100 pg/ml of IFN-γ production

**Q.** With DFPTQVIPL (EZH2 90-98) [EZH2-90] as the sequence, how does the “Humoral response, Total (IgG-positive patients/patients tested)” value ([1]; 10 prostate cancer patients) read?
**A.** 0/10

**Q.** With DYRYSQADAL (EZH2 725-734) [EZH2-725] as the sequence, how does the “Humoral response, Total (IgG-positive patients/patients tested)” value ([1]; 10 prostate cancer patients) read?
**A.** 2/10

**Q.** What about the “IgG reactive to peptide, OD” value ([1]; prostate cancer patient #2) of the same sequence?
**A.** 0.049 OD

**Q.** And the “IgG reactive to peptide, OD” value ([1]; prostate cancer patient #8)?
**A.** 0.056 OD

**Q.** Which “Humoral response, Total (IgG-positive patients/patients tested)” value ([1]; 10 prostate cancer patients) does the source give for IFVELVNAL (EZH2 170-178) [EZH2-170] here?
**A.** 1/10

**Q.** What about the “IgG reactive to peptide, OD” value ([1]; prostate cancer patient #8) of the same sequence?
**A.** 0.043 OD

**Q.** And the “Cancer patients in whom the peptide induced peptide-specific CTLs” value [2]?
**A.** 1 of 10

**Q.** What about the IFN-γ production ([2]; patient #11) of the same sequence?
**A.** 10 pg/mL

**Q.** And the IFN-γ production ([2]; patient #12)?
**A.** 15 pg/mL

**Q.** What about the IFN-γ production ([2]; patient #13) of the same sequence?
**A.** 181 pg/mL

**Q.** And the IFN-γ production ([2]; patient #14)?
**A.** 35 pg/mL

**Q.** And the IFN-γ production ([2]; patient #15)?
**A.** 10 pg/mL

**Q.** And the IFN-γ production ([2]; patient #16)?
**A.** 30 pg/mL

**Q.** What about the IFN-γ production ([2]; patient #17) of the same sequence?
**A.** 87 pg/mL

**Q.** And the IFN-γ production ([2]; patient #18)?
**A.** 0 pg/mL

**Q.** And the IFN-γ production ([2]; patient #19)?
**A.** 16 pg/mL

**Q.** What about the IFN-γ production ([2]; patient #20) of the same sequence?
**A.** 82 pg/mL

**Q.** And the “Reactivity of peptide-stimulated PBMCs, Total (patients with significant IFN-γ production/patients tested)” value [2, 5]?
**A.** 1/10

**Q.** For KYDCFLHPF [EZH2-291], which “Cytotoxicity of peptide-stimulated PBMCs / induction of HLA-A24-restricted prostate cancer-reactive CTLs” value (LNCaP-A24 cells [3]) is on record?
**A.** efficiently induce HLA-A24-restricted and prostate cancer-reactive CTLs

**Q.** What about the “Cytotoxicity of peptide-stimulated PBMCs / induction of HLA-A24-restricted prostate cancer-reactive CTLs” value (LNCaP-A24 cells [3]; listed as EZH2 291–299) of the same sequence?
**A.** efficiently induced HLA-A24-restricted and prostate cancer-reactive CTLs

**Q.** What about the “Cytotoxicity against LNCaP-A24 cells on addition of anti-class I or anti-CD8 mAb” value (LNCaP-A24 cells [4]) of the same sequence?
**A.** significantly inhibited

**Q.** For KYKELTEQQL (EZH2 243-252) [EZH2-243], which “Patients in whose plasma IgG reactive to the peptide was detected” value ([1]; 10 prostate cancer patients) is on record?
**A.** 6 of 10 patients

**Q.** What about the “Humoral response, Total (IgG-positive patients/patients tested)” value ([1]; 10 prostate cancer patients) of the same sequence?
**A.** 6/10

**Q.** And the “IgG reactive to peptide, OD” value ([1]; prostate cancer patient #1)?
**A.** 0.055 OD

**Q.** What about the “IgG reactive to peptide, OD” value ([1]; prostate cancer patient #2) of the same sequence?
**A.** 0.080 OD

**Q.** What about the “IgG reactive to peptide, OD” value ([1]; prostate cancer patient #7) of the same sequence?
**A.** 0.041 OD

**Q.** What about the “IgG reactive to peptide, OD” value ([1]; prostate cancer patient #8) of the same sequence?
**A.** 0.150 OD

**Q.** And the “IgG reactive to peptide, OD” value ([1]; prostate cancer patient #9)?
**A.** 0.089 OD

**Q.** And the “IgG reactive to peptide, OD” value ([1]; prostate cancer patient #10)?
**A.** 0.067 OD

**Q.** And the “Share of prostate cancer patients with IgG reactive to the peptide detected in plasma” value ([1]; summary statement)?
**A.** almost half

**Q.** And the “Cancer patients in whom the peptide induced peptide-specific CTLs” value [2]?
**A.** 2 of 10

**Q.** And the IFN-γ production ([2]; patient #11)?
**A.** 124 pg/mL

**Q.** What about the IFN-γ production ([2]; patient #12) of the same sequence?
**A.** 25 pg/mL

**Q.** And the IFN-γ production ([2]; patient #13)?
**A.** 0 pg/mL

**Q.** What about the IFN-γ production ([2]; patient #14) of the same sequence?
**A.** 13 pg/mL

**Q.** What about the IFN-γ production ([2]; patient #15) of the same sequence?
**A.** 27 pg/mL

**Q.** And the IFN-γ production ([2]; patient #16)?
**A.** 27 pg/mL

**Q.** What about the IFN-γ production ([2]; patient #17) of the same sequence?
**A.** 44 pg/mL

**Q.** What about the IFN-γ production ([2]; patient #18) of the same sequence?
**A.** 13 pg/mL

**Q.** And the IFN-γ production ([2]; patient #19)?
**A.** 71 pg/mL

**Q.** What about the IFN-γ production ([2]; patient #20) of the same sequence?
**A.** 171 pg/mL

**Q.** And the “Reactivity of peptide-stimulated PBMCs, Total (patients with significant IFN-γ production/patients tested)” value [2, 5]?
**A.** 2/10

**Q.** Which “Humoral response, Total (IgG-positive patients/patients tested)” value ([1]; 10 prostate cancer patients) does the source give for KYMCSFLFNL (EZH2 660-669) [EZH2-660] here?
**A.** 2/10

**Q.** And the “IgG reactive to peptide, OD” value ([1]; prostate cancer patient #2)?
**A.** 0.105 OD

**Q.** And the “IgG reactive to peptide, OD” value ([1]; prostate cancer patient #10)?
**A.** 0.058 OD

**Q.** Which “Cytotoxicity of peptide-stimulated PBMCs / induction of HLA-A24-restricted prostate cancer-reactive CTLs” value (LNCaP-A24 cells [3]) does the source give for KYVGIEREM [EZH2-735] here?
**A.** efficiently induce HLA-A24-restricted and prostate cancer-reactive CTLs

**Q.** What about the “Cytotoxicity of peptide-stimulated PBMCs / induction of HLA-A24-restricted prostate cancer-reactive CTLs” value (LNCaP-A24 cells [3]; listed as EZH2 735–743) of the same sequence?
**A.** efficiently induced HLA-A24-restricted and prostate cancer-reactive CTLs

**Q.** What about the “Cytotoxicity against LNCaP-A24 cells on addition of anti-class I or anti-CD8 mAb” value (LNCaP-A24 cells [4]) of the same sequence?
**A.** significantly inhibited

**Q.** For NFMVEDETVL (EZH2 119-128) [EZH2-119], which “Humoral response, Total (IgG-positive patients/patients tested)” value ([1]; 10 prostate cancer patients) is on record?
**A.** 1/10

**Q.** What about the “IgG reactive to peptide, OD” value ([1]; prostate cancer patient #8) of the same sequence?
**A.** 0.047 OD

**Q.** With “RFYIQMCYEL (Flu virus-derived peptide) [reference compound]” as the sequence, how does the “Reactivity of peptide-stimulated PBMCs, Total (patients with significant IFN-γ production/patients tested)” value [2] read?
**A.** 3/10

**Q.** How did the “Reactivity of peptide-stimulated PBMCs, Total (patients with significant IFN-γ production/patients tested)” value [2] turn out when TYGPVFMCL [EBV, reference compound] was run?
**A.** 5/10

**Q.** Which “Humoral response, Total (IgG-positive patients/patients tested)” value ([1]; 10 prostate cancer patients) does the source give for TYYDNFCAI (EZH2 446-454) [EZH2-446] here?
**A.** 0/10
